The values that follow come from US20250387419A1, “PARP INHIBITOR-RESISTANT PATIENT TREATED WITH TH-302” (ASCENTAWITS PHARMACEUTICALS, LTD., priority 2021, published 2025).

The structures appear in SMILES notation. pIC50: −log10 of the molar value. Bounds are passed on as bounds.

The test system of assay [1] is BRCA-mutated Capan-1 cell line. In words: In vitro cell proliferation inhibition (CTG). Type of assay: cell-based, human. The note with it: for pIC50: Homo sapiens, CAPAN-1, Capan-1, 3 h treatment, 72 h. An excerpt: (§1) The applicant specially studied in vitro cell proliferation inhibition of Capan-1 and BxPc-3 cell lines by the hypoxia-activated anti-cancer prodrugs TH-302 and tirapazamine under normoxia and hypoxia. The Capan-1 cell line was a BRCA-mutated cell line, and the BxPc-3 cell line was a BRCA wild-type (i.e., non-BRCA-mutated) cell line. This experiment was intended to verify the difference of the hypoxia-activated anti-cancer prodrugs, TH-302 and tirapazamine, in sensitivity to BRCA mutations.
(§2) • 1) Capan-1/BxPc-3 cell suspensions were added to two types of 24-well plates, 495 μL each well. Density of the cells was 6×10^4 per well. 24-well plates with glass inserts were used in hypoxic tests, and ordinary plastic 24-well plates were used in normoxic tests. • 2) The cells were incubated overnight in an incubator at 37° C. in 5% CO2. • 3) Compound Processing
(§3) A hypoxia workstation was tuned to create a hypoxic environment (O2<0.01%), and an oxygen indicator was used to confirm the hypoxia in the workstation.
(§4) 24 hours after cell seeding, the 24-well plates with glass inserts were transferred into the hypoxia workstation.
(§5) The 24-well plates were placed on vortex shakers, uncovered and shaken to allow air exchange for 5 minutes.
(§6) To each well in a monotherapy group, a 100× test compound solution was added.
(§7) 24 hours after cell seeding, 5 μL of the 100× test compound solution was added to each well. Three replicate wells were set up for each test group.

The test system of assay [2] is BRCA wild-type BxPc-3 cell line. In words: In vitro cell proliferation inhibition (CTG). Format: cell-based. The conditions noted are these: for pIC50: Homo sapiens, BXPC-3, BxPc-3, 3 h treatment, 72 h.
Text: as §1, §2, §3, §4, §5, §6, §7

Regarding `Nc1n[n+]([O-])c2ccccc2[n+]1[O-]` [tirapazamine, reference compound], the “Ratio (21% O2/0.01% O2)” value was above 68.82 in assay [1] (Capan-1) and above 60.19 in assay [2] (BxPc-3). In addition, the pIC50 in assay [1] (21% O2) is below 2.70; in assay [1] (<0.01% O2), 4.54; in assay [2] (21% O2), below 2.70; in assay [2] (<0.01% O2) it was 4.48.
